Series [1] concerns Staphylococcus aureus (ATCC29213). The experiment in a line: In-vitro anti-bacterial activity, microtitre plate assay, IC90 determination (non-mycobacterial strains). It is filed as cell-based. The following applies: 90% inhibitory concentration for bacterial growth, resazurin fluorescence; for IC90 STA B29213: 24 hours; for IC90: Staphylococcus aureus, ATCC29213, 24 h, read-out: IC90 STA B29213. Summed up: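 Growth inhibition measured fluorometrically with resazurin (530/590 nm) after overnight 37 °C incubation under normal atmosphere. Bacteria added at roughly 100 TCID50 per well in Mueller-Hinton broth to five-fold compound dilution series; IC90 reported in μg/ml.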
Background: The colour change of resazurin is a common sign of viable cells or microbes.

Series [2] relates to Mycobacterium smegmatis (ATCC607). The experiment in a line: In-vitro anti-bacterial activity against strain M. Smegmatis ATCC607. It is filed as cell-based. The following applies: 90% inhibitory concentration for bacterial growth, Alamar Blue fluorescence; for IC90 MSM 607: 48 hours; for IC90: Mycolicibacterium smegmatis, ATCC607, 48 h, read-out: IC90 MSM 607. Summed up:
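IC90 (μg/ml) derived from Alamar Blue fluorescence (530/590 nm) after 48 h growth at 37 °C under 5% CO2. About 250 CFU per well in Mueller-Hinton broth faced five-fold serial compound dilutions in BSA-containing wells.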

Values after ≈ are worked out from the molar mass of the structure shown. Counter-ions that a name gives are not always drawn. Where only a bound is given, the exact number is not on record here.

In general, melting point refers to the temperature of the solid-liquid transition. Regarding `COc1nc2ccc(Br)cc2cc1C(c1ccc(Cl)cc1)C1(O)CCN(Cc2ccccc2)CC1C` (stereo not shown) (as salt: salt) [Compound 25], the melting point was 154 °C.
On the same count and under the same terms, as for `COc1nc2ccc(Br)cc2cc1C(c1ccc(Cl)cc1)C1(O)CCN(Cc2ccccc2)CC1C` (stereo not shown) (as salt: salt) [Compound 26], the figure is 238 °C.
Still for that read-out and setting: as for `COc1nc2ccc(SC)cc2cc1C(c1cccc(Cl)c1)C1(O)CCNC(Cc2ccc(F)cc2F)C1` (stereo not shown) (as salt: trifluoroacetate) [Compound 50], the figure is 208 °C; as for `COc1nc2ccc(Br)cc2cc1C(c1ccc(Cl)cc1)C1(O)CCNC(Cc2ccc(F)cc2F)C1` (stereo not shown) (as salt: trifluoroacetate) [Compound 51], 176 °C.
The same measure, in the same setting: as for `COc1nc2ccc(S(C)(=O)=O)cc2cc1C(c1ccc(Cl)cc1)C1(O)CCNC(Cc2ccc(F)cc2F)C1` (stereo not shown) (as salt: trifluoroacetate) [Compound 305], the figure is 133 °C.
Take `COc1nc2ccc(S(C)(=O)=O)cc2cc1C(c1ccc(Cl)cc1)C1(O)CCNC(Cc2ccc(F)cc2F)C1` (stereo not shown) (as salt: trifluoroacetate) [Compound 306]: the melting point was 157 °C.
Regarding `COc1nc2ccc(Br)cc2cc1C(c1ccc(Cl)cc1)C1(O)CCNC(Cc2ccc(F)cc2F)C1` (stereo not shown) (as salt: trifluoroacetate) [Compound 313], the melting point came to 147 °C.
Still for that read-out and setting: as for `COc1nc2ccc(Br)cc2cc1C(c1ccc(Cl)cc1)C1(O)CCNC(Cc2ccc(F)cc2F)C1` (stereo not shown) (as salt: trifluoroacetate) [Compound 319], the figure is 169 °C; as for `COc1nc2ccc(S(C)(=O)=O)cc2cc1C(c1cccc(Cl)c1)C1(O)CCNC(Cc2ccc(F)cc2F)C1` (stereo not shown) (as salt: trifluoroacetate) [Compound 325], 144 °C; as for `COc1nc2ccc(S(C)(=O)=O)cc2cc1C(c1cccc(Cl)c1)C1(O)CCNC(Cc2ccc(F)cc2F)C1` (stereo not shown) (as salt: trifluoroacetate) [Compound 326], 166 °C.
As to `COc1nc2ccc(Cl)cc2cc1C(c1ccc(Cl)cc1)C1(O)CCNC(c2ccc(F)cc2C)C1` (single isomer, unassigned) [Compound 2], the melting point was 126 °C. For the same compound, the “IC90 STA B29213” value in series [1] amounted to 13.20 µg/mL (≈ 25.1 µM). Also, the “IC90 MSM 607” value in series [2] is 13.20 µg/mL (≈ 25.1 µM).
Compound `COc1nc2ccc(Cl)cc2cc1C(c1ccc(Cl)cc1)C1(O)CCNC(c2ccc(F)cc2C)C1` (single isomer, unassigned) [Compound 3] came in with a melting point of 146 °C. Further, the “IC90 STA B29213” value in series [1] turned out to be 0.83 µg/mL (≈ 1.58 µM). In addition, the “IC90 MSM 607” value in series [2] came to 0.83 µg/mL (≈ 1.58 µM).
For `COc1nc2ccc(Br)cc2cc1C(n1cccn1)[C@@]1(O)CCN[C@H](Cc2ccccc2)C1` (stereo in doubt) (as salt: fumarate) [Compound 67], the melting point amounted to 245 °C.
Regarding `CS(=O)(=O)c1ccc2[nH]c(=O)c(C(c3ccc(Cl)cc3)C3(O)CCN[C@@H](Cc4ccc(F)c(F)c4)C3)cc2c1` (stereo in doubt) (as salt: hydrochloride) [Compound 205], the melting point was greater than 250 °C.
On the same count and under the same terms, as for `CS(=O)(=O)c1ccc2[nH]c(=O)c(C(c3ccc(Cl)cc3)C3(O)CCN[C@@H](Cc4ccc(F)c(F)c4)C3)cc2c1` (stereo in doubt) (as salt: hydrochloride) [Compound 206], the figure is 245 °C.
The term IC90 denotes the point of the concentration-response curve where the effect stands at 90%. `COc1nc2ccc(SC)cc2cc1[C@@H](c1ccc(Cl)cc1)C1(O)CCNCC1(C)C` (stereo in doubt) [Compound 62] showed a melting point of 212 °C. The 90% effect concentration (IC90) in series [1] amounted to 5.75 µg/mL (≈ 12.6 µM). In addition, in series [2], the concentration for an effect of 90% (IC90) came out at 4.57 µg/mL (≈ 10 µM).
With `COc1nc2ccc(Cl)cc2cc1C(c1ccc(Cl)cc1)C1(O)CCN(C(C)c2ccccc2)C(CO)C1` (stereo not shown) [Compound 9], the melting point stood at 182 °C. Besides, the 90% effect concentration (IC90) in series [1] worked out at 4.92 µg/mL (≈ 8.92 µM). Further, the IC90 in series [2] was determined as 3.48 µg/mL (≈ 6.31 µM).
In the case of `COc1nc2ccc(Br)cc2cc1C(c1ccc(Cl)cc1)C1(O)CCNC(C)C1` (stereo not shown) [Compound 11], the melting point came out at 143 °C. In addition, the IC90 in series [1] came out at 3 µg/mL (≈ 6.3 µM). Further, in series [2], the concentration for an effect of 90% (IC90) was determined as 3 µg/mL (≈ 6.3 µM).
As to `COc1nc2ccc(Cl)cc2cc1C(c1ccc(Cl)cc1)C1(O)CCNC(CO)C1` (stereo not shown) [Compound 12], the melting point stood at 135 °C. Also, the concentration for an effect of 90% (IC90) in series [1] is 7.09 µg/mL (≈ 15.8 µM). Besides, the IC90 in series [2] worked out at 2.82 µg/mL (≈ 6.3 µM).
The compound `COc1nc2ccc(F)cc2cc1C(c1ccc(Cl)cc1)C1(O)CCN(C(C)c2ccccc2)C(CO)C1` (stereo not shown) [Compound 13] registered a melting point of 162 °C. For the same compound, the 90% effect concentration (IC90) in series [1] is 8.48 µg/mL (≈ 15.8 µM). Further, in series [2], the IC90 was 4.77 µg/mL (≈ 8.91 µM).
Compound `O=c1[nH]c2ccc(Cl)cc2cc1C(c1ccc(Cl)cc1)C1(O)CCNC(CO)C1` (stereo not shown) [Compound 20] came in with a melting point of 232 °C. The IC90 in series [1] is greater than 10.9 µg/mL.
In turn, `COc1nc2ccc(F)cc2cc1C(c1ccccc1)C1(O)CCNC(CO)C1` (stereo not shown) [Compound 29] returned a melting point of 135 °C. Also, the IC90 in series [1] is greater than 9.96 µg/mL.
`COc1nc2ccc(Br)cc2cc1C(c1ccc(Cl)cc1)C1(O)CCNC(Cc2ccccc2)C1` (stereo not shown) [Compound 31] came in with a melting point of 183 °C. The IC90 in series [1] amounted to 3.48 µg/mL (≈ 6.31 µM). For the same compound, in series [2], the “IC90 MSM 607” value turned out to be 1.90 µg/mL (≈ 3.44 µM).
Compound `COc1nc2ccc(Br)cc2cc1C(c1ccc(Cl)cc1)C1(O)CCNC(Cc2ccccc2)C1` (stereo not shown) [Compound 33] had a melting point of 177 °C. The “IC90 STA B29213” value in series [1] came to 3.48 µg/mL (≈ 6.31 µM). For the same compound, in series [2], the “IC90 MSM 607” value is greater than 3.48 µg/mL.
Consider `COc1nc2ccc(Br)cc2cc1C(c1cccc(Cl)c1)C1(O)CCNC(Cc2ccccc2)C1` (stereo not shown) [Compound 34], for which the melting point was 152 °C. Also, the “IC90 STA B29213” value in series [1] was 3.48 µg/mL (≈ 6.31 µM). Further, the “IC90 MSM 607” value in series [2] is 2.20 µg/mL (≈ 3.99 µM).
As to `COc1nc2ccc(-c3cccnc3)cc2cc1C(c1cccc(Cl)c1)C1(O)CCNC(Cc2ccccc2)C1` (stereo not shown) [Compound 36], the melting point was 120 °C. For the same compound, the concentration for an effect of 90% (IC90) in series [1] was determined as 3.47 µg/mL (≈ 6.31 µM). Also, the IC90 in series [2] was found to be 2.19 µg/mL (≈ 3.98 µM).
Regarding `COc1nc2ccc(Cl)cc2cc1C(c1ccc(Cl)cc1)C1(O)CCNC(Cc2ccccc2)C1` (stereo not shown) [Compound 37], the melting point came to 107 °C. For the same compound, the “IC90 STA B29213” value in series [1] came to 1.14 µg/mL (≈ 2.25 µM). The “IC90 MSM 607” value in series [2] was determined as 0.90 µg/mL (≈ 1.77 µM).
Regarding `COc1nc2ccc(S(C)(=O)=O)cc2cc1C(c1cccc(Cl)c1)C1(O)CCNC(c2ccc(F)cc2C)C1` (stereo not shown) [Compound 44], the melting point amounted to 148 °C. Also, the “IC90 STA B29213” value in series [1] is 7.16 µg/mL (≈ 12.6 µM). Besides, in series [2], the “IC90 MSM 607” value came out at 3.59 µg/mL (≈ 6.31 µM).
`COc1nc2ccc(S(C)(=O)=O)cc2cc1C(c1cccc(Cl)c1)C1(O)CCNC(c2ccc(F)cc2C)C1` (stereo not shown) [Compound 45] returned a melting point of 160 °C. Further, in series [1], the “IC90 STA B29213” value is 1.80 µg/mL (≈ 3.16 µM). Also, in series [2], the “IC90 MSM 607” value was determined as 1.14 µg/mL (≈ 2 µM).
`COc1nc2ccc(S(C)(=O)=O)cc2cc1C(c1cccc(Cl)c1)C1(O)CCNC(c2ccc(F)cc2C)C1` (stereo not shown) [Compound 46] came in with a melting point of 145 °C. For the same compound, the “IC90 STA B29213” value in series [1] turned out to be 3.59 µg/mL (≈ 6.31 µM). The “IC90 MSM 607” value in series [2] worked out at 1.80 µg/mL (≈ 3.16 µM).
Turning to `COc1nc2ccc(Br)cc2cc1C(c1ccc(Cl)cc1)C1(O)CCNC(Cc2ccccc2)C1` (stereo not shown) [Compound 70], the melting point was found to be 112 °C. Moreover, the “IC90 STA B29213” value in series [1] came to 4.38 µg/mL (≈ 7.94 µM).
The compound `COc1nc2ccc(Br)cc2cc1C(c1ccc(Cl)cc1)C1(O)CCNC(Cc2ccccc2)C1` (stereo not shown) [Compound 71] registered a melting point of 138 °C. For the same compound, in series [1], the “IC90 STA B29213” value came out at 4.38 µg/mL (≈ 7.94 µM).
With `COc1nc2ccc(Br)cc2cc1C(c1ccccc1)C1(O)CCNC(Cc2ccccc2)C1` (stereo not shown) [Compound 74], the melting point was determined as 157 °C.
The compound `COc1nc2ccc(Br)cc2cc1C(c1ccc(Cl)cc1)C1(O)CCN(Cc2ccccc2)C(Cc2ccccc2)C1` (stereo not shown) [Compound 75] showed a melting point of 192 °C.
On the same count and under the same terms, as for `COc1nc2ccc(Br)cc2cc1C(c1ccc(Cl)cc1)C1(O)CCNC(Cc2ccccc2)C1` (stereo not shown) [Compound 78], the figure is 130 °C.
In the case of `O=c1[nH]c2ccc(Br)cc2cc1C(c1ccc(Cl)cc1)C1(O)CCNC(Cc2ccccc2)C1` (stereo not shown) [Compound 81], the melting point stood at 233 °C. For the same compound, the IC90 in series [1] came out at 8.52 µg/mL (≈ 15.8 µM).
`COc1nc2ccc(Br)cc2cc1C(c1ccc(Cl)cc1)C1(O)CCNC(Cc2ccc(F)c(F)c2)C1` (stereo not shown) [Compound 111] yielded a melting point of 111 °C.
Still for that read-out and setting: as for `COc1nc2ccc(Br)cc2cc1C(c1ccc(Cl)cc1)C1(O)CCNC(C)C1` (stereo not shown) [Compound 123], the figure is 210 °C.
On to `COc1nc2ccc(F)cc2cc1C(c1ccc(Cl)cc1)C1(O)CCN(C(C)c2ccccc2)C(CO)C1` (stereo not shown) [Compound 436], for which the melting point stood at 135 °C. For the same compound, the 90% effect concentration (IC90) in series [1] was determined as 13.4 µg/mL (≈ 25.1 µM).
Consider `COc1nc2ccc(Cl)cc2cc1C(c1ccc(Cl)cc1)C1(O)CCNCC1Cc1ccccn1` (stereo not shown) [Compound 438], for which the melting point came to 188 °C. In series [1], the “IC90 STA B29213” value came out at 3.21 µg/mL (≈ 6.31 µM).
Regarding `COc1nc2ccc(Cl)cc2cc1C(c1ccc(Cl)cc1)C1(O)CCNCC1Cc1ccccn1` (stereo not shown) [Compound 439], the melting point was 132 °C. Further, the “IC90 STA B29213” value in series [1] stood at 12.77 µg/mL (≈ 25.1 µM).
Compound `COc1nc2ccc(Cl)cc2cc1C(c1ccc(Cl)cc1)C1(O)CCNCC1c1cccnc1` (stereo not shown) [Compound 443] yielded a melting point of 156 °C. Moreover, the “IC90 STA B29213” value in series [1] turned out to be 4.41 µg/mL (≈ 8.92 µM).
`COc1nc2ccc(Cl)cc2cc1C(c1ccc(Cl)cc1)C1(O)CCNCC1c1cccnc1` (stereo not shown) [Compound 444] displayed a melting point of 172 °C. Also, the “IC90 STA B29213” value in series [1] was found to be 12.42 µg/mL (≈ 25.1 µM).
Taken in the same sequence, the figures for `COc1nc2ccc(Cl)cc2cc1C(c1ccc(Cl)cc1)C1(O)CCNCC1c1cccnc1` (stereo not shown) [Compound 445] were 154 °C and 3.50 µg/mL (≈ 7.08 µM).
